Experimental data published in PMC3706879, “The neurotrophic compound J147 reverses cognitive impairment in aged Alzheimer's disease mice” (Alzheimer's Research & Therapy, 2013).

Experiments:
C57BL/6J mice [1] = test: fear conditioning, scopolamine induced memory impairment; type: in vivo; details: scopolamine 1 mg/kg i.p.; J147 200 ppm, donepezil 20 ppm in food; vs scopolamine
Protocol: (§1) A total of 60 male mice aged eight weeks were housed 4 per cage and were divided into five groups with 12 mice per group. Treatments were administered in the food (TestDiet® 5015, Richmond, IN, USA) for a period of two weeks before commencement of behavioral testing. […] Following two weeks of treatment, memory impairment was induced by intraperitoneal (i.p.) injection of scopolamine (1 mg/kg) 30 minutes prior to each of the following behavioral tests: Y-maze, probe trial of the water maze and contextual and cued fear conditioning. Mice were allowed to rest for two days between each behavior test. All mice received scopolamine except for one of the control groups, which received saline as a control. Mice were sacrificed 24 hours after the last behavioral test for tissue harvesting.
Fear conditioning to either a cue or a context represents a form of associative learning. The read-out that is measured in contextual and cued fear conditioning is a freezing response that occurs following the pairing of an unconditioned stimulus (US), such as a foot shock, with a conditioned stimulus (CS), such as a particular context or cue (tone). The mouse will freeze if it remembers and associates that environment with the aversive stimulus. The hippocampus and the amygdala are required for fear memory where the hippocampus is involved in the formation and retrieval of context fear associations and the amygdala is involved in conditioning and recall of associations to contextual and discrete cues. This assay used fear conditioning chambers from Med Associates Inc. with Video Freeze Software (Med Associates Inc, St. Albans, VT, USA). On Day 1, mice were trained by allowing them to explore the chamber for 120 sec, mice were then presented with a 30-sec tone (2 kHz with 85 dB intensity) immediately followed by a 2-sec foot shock (0.7 mA). The tone-shock pairing was repeated following a 30-sec interval and the mice were again allowed to explore for 120 sec before removing them from the chamber. On Day 2, contextual memory, which requires a functioning hippocampus, was tested by placing the mice in the chambers and allowing them to explore for the same length of time as the previous day but without the tone and the shock. On Day 3, cued or emotional memory was tested, which relies on both hippocampus and amygdala. […] On Day 2, the time spent freezing is measured over the entire time in the chamber. […] The percentage of time spent freezing by each mouse is averaged per group and then groups can be compared and P-values calculated to determine statistical significance. On Day 3, the percentage of time spent freezing during the two tones is averaged per group, and then groups can be compared and P-values calculated to determine statistical significance. […]

Aβ plaques = test: immunohistochemistry (6E10) of amyloid plaques in hippocampus of aged huAPP/PS1 mice; type: in vivo
Protocol: Brains were fixed with 4% paraformaldehyde in 100 mM sodium tetraborate, pH 9.5, for 3 h, cryoprotected with 20% sucrose-potassium-PBS (KPBS), and sectioned into coronal (30 μm) sections using a sliding microtome (Leica Microsystems Inc, Buffalo Grove, IL, USA). Sections were submerged in 0.3% H2O2 for 10 minutes to eliminate endogenous peroxidase activity and treated with 1% borate to eliminate free paraformaldehyde. Sections were incubated with primary antibody in 0.3% Triton X-100 in KPBS plus 2% filtered serum or BSA overnight at 4°C, and with […] (1:1,000) in 0.3% Triton X-100 for 1 hr at room temperature. After incubation with secondary antibody and ABC reagent (Vector Laboratories Inc, Burlingame, CA, USA), sections were developed using metal-enhanced DAB solution. Sections were mounted to slides, dried, dehydrolyzed, treated with xylene, and covered using permount (Fisher Scientific, Pittsburgh, Pennsylvania, USA). […]
Quantification of amyloid plaque burden was based on the image captured by immunohistochemical staining with antibody 6E10. Sections of each mouse cortex and hippocampus were imaged together and the areas and densities of the plaques in the hippocampus only were measured by the Image J software (NIH). The total counts of Aβ plaques in sections per six mouse brains of each group were determined in an unbiased fashion.

C57BL/6J mice [2] = test: Y-maze, scopolamine induced memory impairment; type: in vivo; details: scopolamine 1 mg/kg i.p.; J147 200 ppm, donepezil 20 ppm in food for two weeks
Protocol: as §1
Spontaneous alternation, the tendency to alternate free choices in a Y-maze (three arms), is a model for studying short term working memory in mice. Mice were injected with 1 mg/kg of scopolamine or saline 30 minutes prior to testing. Then each mouse was placed in the center of the Y and arm entries were recorded by video camera and the order of entries were recorded for the first 15 entries. Spontaneous alternations are defined as consecutive triplets of different arm choices.

APP/swePS1ΔE9 mice = system: APP/swePS1ΔE9 mice; set-up: method as in PMID 22194796; details: cited from earlier work
huAPP/PS1 mice = test: elevated plus maze in aged huAPP/PS1 mice; type: in vivo; details: 200 ppm in food for three months
Protocol: The APPswe/PS1ΔE9 transgenic mice have been previously characterized. The line 85 mice carry two transgenes, the mouse/human chimeric APP/Swe, linked to Swedish FAD and human PS1ΔE9. At 20 months of age both male and female transgenic mice were fed a high fat diet (Harlan Tekland, Madison, WI, USA) with and without J147 (200 ppm, 10 mg/kg/day). Treatment continued for three months and was followed by behavior testing and sacrifice of mice for tissue harvesting. […] (Data not shown).
The elevated plus maze analyzes the anxiety response of mice. This test relies upon the tendency of mice to have a fear of heights and to navigate towards dark enclosed spaces and remain there. Our maze is made of gray plastic and consists of four arms (two open without walls and two enclosed by 15.25 cm high walls) 30 cm long and 5 cm wide in the shape of a plus sign. The elevated plus maze is placed close to the center of the room, and has similar levels of illumination on both open and closed arms. A video-tracking system (Noldus EthoVision) is used to automatically collect behavioral data. […] Mice were then tested in the maze for a five-minute period while the software tracked and recorded the behavior of the mice. The anxiety of mice was measured by comparing the time spent in the open arms to time spent in the closed arms. […]

With `COc1cccc(/C=N/N(C(=O)C(F)(F)F)c2ccc(C)cc2C)c1` [J147, (E)-N-(2,4-dimethylphenyl)-2,2,2-trifluoro-N'-(3methoxybenzyli-dene) acetohydrazide] the “contextual memory (freezing Day 2)” value (C57BL/6J mice [1]) was “it was not significant”, the “cued memory (freezing in response to the tone, Day 3)” value (C57BL/6J mice [1]) was “neither effect was significant” and the “plaque number and size” value (Aβ plaques) was “no difference in either plaque number or size”. The “short-term working memory (spontaneous alternations, Y maze)” value (C57BL/6J mice [2]) was “improve short-term working memory”, the “loss of synaptic proteins and cognitive decline” value (APP/swePS1ΔE9 mice; administered to three-month-old APP/swePS1ΔE9 mice for seven months) was “prevents the loss of synaptic proteins and cognitive decline” and the “levels of BDNF in the hippocampus” value (APP/swePS1ΔE9 mice; huAPP/PS1 transgenic mice) was “increases the levels of BDNF”. For the same compound, the “disinhibition phenotype (time in the open arm)” value (huAPP/PS1 mice) was “completely rescued”.
